# Measurements reported in patent publication US11768205B2, “Methods and materials for identifying and treating cancers having elevated levels of phosphorylated ubiquitin” (Mayo Foundation for Medical Education and Research, priority 2017, dated 2023).
# How the values were obtained:
# NIH-3T3 cells = assay: Western blot of Ub conjugates after FGFb; type: cell-based, mouse
# Method: FIG. 6. FGFR activation increases cellular Ub conjugates. (A to D). NIH-3T3 cells were serum starved for 48 hours and then treated with 20 ng/mL FGFb and harvested at different time course. Total Ub conjugates (A), K48-linked conjugates (B), and K63-linked conjugates (C) were determined by Western blot, and their intensities were quantitated and normalized to that of β-actin and then to time 0 in each group (D). Data were mean±SD of three independent experiments. (**: p<0.01, Student's t-test). (E to H). HEK293 cells were transfected with empty vector (Ctrl), FGFR2 wide type, or FGFR2 kinase dead mutant (KR). Total Ub conjugates (E), K48-linked conjugates (F), and K63-linked conjugates (G) were determined by Western blot, and their intensities were quantitated and normalized to that of β-actin and then to control in each group (H). Data were mean±SD of three independent experiments. (**: p<0.01, Student's t-test). (I to L). NIH-3T3 cells were serum starved for 48 hours and then treated with vehicle, FGFb, or FGFb and FGF inhibitor TKI-258. Total Ub conjugates (I), K48-linked conjugates (J), and K63-linked conjugates (K) were determined by Western blot, and their intensities were quantitated and normalized to that of β-actin and then to control in each group (L). Data were mean±SD of three independent experiments. (**: p<0.01, Student's t-test).
# Cell lysates were prepared, and immunoprecipitation and immunoblotting were performed as described elsewhere (Deng et al., Mol. Cell, 61:614-624 (2016)). In brief, cells were lysed with NETN buffer (20 mM Tris-HCl, pH 8.0, 100 mM NaCl, 1 mM EDTA, 0.5% Nonidet P-40) containing 50 mM β-glycerophosphate, 10 mM NaF, and 1 mg/mL each of pepstatin A and aprotinin. Whole cell lysates were centrifuged at 12000 rpm for 15 minutes. Whole cell lysates were incubated with 2 of antibody and protein A or protein G Sepharose beads (Amersham Biosciences) for 2 hours or overnight at 4° C. The immunocomplexes were then washed with NETN buffer for three times and separated by SDS-PAGE. Immunoblotting was performed following standard procedures. […]
# MDA-MB-468 cells [1] = assay: Western blot of total, K48-linked and K63-linked Ub conjugates after EGF; type: cell-based, human
# Method: FIG. 3. EGFR enhances proteasomal degradation and promotes K48-linked ubiquitin conjugates. (A). MDA-MB-468 cells were serum starved for 24 hours and labeled with ^35S-Met for 24 hours. […] The rate of protein degradation was shown as the fraction of radiolabelled protein remaining over time. Data were mean±SD of three independent experiments. (**: p<0.01, two-way ANOVA test). (B and C). MDA-MB-468 cells were treated as in (A), except that 20 nM bortezomib (B) or 10 μM chloroquine (C) was present in the chase media. Data were mean±SD of three independent experiments. (**: p<0.01, two-way ANOVA test). (D). […] Total Ub conjugates, K48-linked conjugates, and K63-linked conjugates were determined by Western blot, and their intensities were quantitated and normalized to that of β-actin and then to time 0 in each group. Data were mean±SD of three independent experiments. (**: p<0.01, Student's t-test). (E). […] Total Ub conjugates, K48-linked conjugates, and K63-linked conjugates were determined by Western blot, and their intensities were quantitated and normalized to that of β-actin and then to control in each group. Data were mean±SD of three independent experiments. […] Total Ub conjugates, K48-linked conjugates, and K63-linked conjugates were determined by Western blot, and their intensities were quantitated and normalized to that of β-actin and then to time 0 in each group. […]
# [2] = test system: NIH-3T3 cells transformed by EGFR L858R; assay: Cell proliferation and MTS assay; type: cell-based, mouse; conditions: EGFR L858R transformed cells compared to Ctrl cells; FIG. 14G
# Method: FIG. 14. […] (A-D). NIH-3T3 cells were infected with virus expressing EGFR DM mutant. Cells were harvested at different times after infection. Total Ub conjugates (A), K48-linked conjugates (B), and K63-linked conjugates (C) were determined by Western blot, and their intensities were quantitated and normalized to that of β-actin. Data were mean±SD of three independent experiments. (**: p<0.01, Student's t-test). (E) NIH-3T3 cells were infected with virus expressing EGFR DM mutant. Cells were harvested at different times after infection. Cell lysates were blotted with an anti-pY59 antibody. (F). NIH-3T3 stably expressing empty vector (Ctrl) or EGFR L858R mutant were serum starved for 48 hours and were labeled with ^35S Met for 24 hours in the absence of serum. […] At different time points, cells were harvested, and radiolabeled protein remaining in the cell was measured. The rate of protein degradation was shown as the fraction of radiolabeled protein remaining over time. […]
# 90 μL of cells (5×10^5 cells/mL) were plated into each well of 96-well plates (Corning, Lowell, Mass.; MacLean et al., Bioinformatics, 26:966-968 (2010)) and were treated with 10 μL of bortezomib at the final concentrations of 0, 0.0457, 0.1372, 0.4115, 1.2346, 3.7037, 11.1111, 33.3333 and 100 nM. […] Plates were then read in a microplate reader at absorbance of OD 490 (Tecan AG, Switzerland).
# MDA-MB-468 cells [3] = assay: Pulse-chase measurement of protein degradation (35S-Met); type: cell-based, human
# Method: FIG. 3. EGFR enhances proteasomal degradation and promotes K48-linked ubiquitin conjugates. (A). MDA-MB-468 cells were serum starved for 24 hours and labeled with ^35S-Met for 24 hours. […] The rate of protein degradation was shown as the fraction of radiolabelled protein remaining over time. Data were mean±SD of three independent experiments. (**: p<0.01, two-way ANOVA test). (B and C). MDA-MB-468 cells were treated as in (A), except that 20 nM bortezomib (B) or 10 μM chloroquine (C) was present in the chase media. Data were mean±SD of three independent experiments. (**: p<0.01, two-way ANOVA test). (D). […] Total Ub conjugates, K48-linked conjugates, and K63-linked conjugates were determined by Western blot, and their intensities were quantitated and normalized to that of β-actin and then to time 0 in each group. Data were mean±SD of three independent experiments. (**: p<0.01, Student's t-test). (E). […] Total Ub conjugates, K48-linked conjugates, and K63-linked conjugates were determined by Western blot, and their intensities were quantitated and normalized to that of β-actin and then to control in each group. Data were mean±SD of three independent experiments. (**: p<0.01, Student's t-test). (F). HEK293 cells were transfected with empty vector (Ctrl) or constitutively-active EGFR (encoding the T790M/L858R mutation) and treated with AG-1478. Total Ub conjugates, K48-linked conjugates, and K63-linked conjugates were determined by Western blot, and their intensities were quantitated and normalized to that of β-actin and then to time 0 in each group. Data were mean±SD of three independent experiments. (**: p<0.01, Student's t-test).
# FIG. 4. EGF treatment raises the cellular content of Ub conjugates independent of EGFR ubiquitination and new protein synthesis. (A-D). […] Total Ub conjugates (A), K48-linked conjugates (B), and K63-linked conjugates were determined by Western Blot, and their intensities were quantitated and normalized to that of β-actin and then to control at time 0 in each group (D). Data were mean±SD of three independent experiments. (**: p<0.01, Student's t-test). (E). […] At different time points, cells were harvested, and radiolabeled protein remaining in the cell was measured. […] Cells were treated as illustrated in (A), and the radioactivity of remaining in cells was measured. […] The levels of Ub conjugates and β-actin were determined by Western blot (C) and quantitated (D). […]
# To assess protein degradation, cells were starved for 30 minutes with methionine-free DMEM and pulse labelled for 16-24 hours with 0.5 mL of medium containing 0.1 mCi of ^35S-Met. […] After washing in cold PBS, cells were treated in chase medium for various times, and the remaining radioactivity in cells was measured as described elsewhere (Taelman et al., Cell, 143:1136-1148 (2010)). […]
# MDA-MB-468 cells [4] = assay: Immunoblot of Ub Y59 phosphorylation with anti-pY59 antibody; type: cell-based, human; conditions: 20 ng EGF, time dependent; FIG. 7D
# Method: FIG. 7. EGFR phosphorylates ubiquitin. (A). An in vitro kinase assay was performed at 30° C. for 1 hour in the presence of EGFR and different tetra-Ub chain or free Ub. The gels were subjected to western blot with anti-phosphor-tyrosine antibody (upper panel) or Coomassie brilliant blue (CBB) staining (lower panel). (B). Lysates from EGF treated cells was trypsinized and subjected to liquid chromatography tandem mass spectrometry (LC-MS/MS) analysis. (C). […] Absolute quantification of […] and TLSD(pY)[…] from control of EGF treated cells were quantified by Parallel Reaction Monitoring. Data were mean±SD of three independent experiments. (**: p<0.01, Student's t-test). […] Cell lysates were blotted with the anti-pY59 antibody. (E). […] Cell lysates were blotted with antibodies against pY59 and β-actin. (F). WT Ub- and Ub Y59F-replacement cells were serum starved and induced with DOX for 72 hours to replace endogenous Ub with WT Ub or Ub Y59F. […] Cell lysates were blotted with antibodies against pY59 and β-actin.
# Cell lysates were prepared, and immunoprecipitation and immunoblotting were performed as described elsewhere (Deng et al., Mol. Cell, 61:614-624 (2016)). In brief, cells were lysed with NETN buffer (20 mM Tris-HCl, pH 8.0, 100 mM NaCl, 1 mM EDTA, 0.5% Nonidet P-40) containing 50 mM β-glycerophosphate, 10 mM NaF, and 1 mg/mL each of pepstatin A and aprotinin. […]
compound,measurement,setting,value
"CC(O)C(=O)O.CN1CCN(c2ccc3nc(-c4c(N)c5c(F)cccc5[nH]c4=O)[nH]c3c2)CC1 [TKI-258, Dovitinib (TKI 258)]",effect on increase in Ub conjugates induced by FGFb,"NIH-3T3 cells; FGFb and TKI-258, FIGS. 6I-L",blocked
N#CC(=C(/N)Sc1ccccc1N)/C(C#N)=C(\N)Sc1ccccc1N [U0126],effect on stimulation of Ub chain assembly by EGF,"MDA-MB-468 cells [1]; pretreated 12 hours before EGF treatment, FIGS. 5B-E",did not affect
CC(C)C[C@H](NC(=O)[C@H](Cc1ccccc1)NC(=O)c1cnccn1)B(O)O [bortezomib],bortezomib sensitivity,[2],much higher
C[C@@H]1C[C@@H]([C@H](O)CC2CC(=O)NC(=O)C2)C(=O)[C@@H](C)C1 [cycloheximide],proteasomal proteolysis,"MDA-MB-468 cells [3]; 100 μg/mL cycloheximide by itself, chloroquine in chase, FIG. 4G",reduced
"EGF: growth factor used to activate EGFR (NSDSECPLSHDGYCLHDGVCMYIEALDKYACNCVVGYIGERCQYRDLKWWELR; Epidermal growth factor; UniProt P01133 971-1023, looked up)",cellular ubiquitin conjugates,"MDA-MB-468 cells [1]; 20 ng EGF, time dependent, FIG. 3D",significantly higher
same,phosphorylation of Ub,MDA-MB-468 cells [4],dramatic increase
same,rate of protein degradation,"MDA-MB-468 cells [3]; EGF in chase medium, FIG. 3A",decrease
same,lysosome-dependent degradation,"MDA-MB-468 cells [3]; EGF, in the presence of 20 nM bortezomib, FIG. 3B",inhibited
same,proteasome-mediated proteolysis,"MDA-MB-468 cells [3]; EGF, in the presence of 10 μM chloroquine, FIG. 3C",increased dramatically
"FGFb: FGF basic, growth factor used to activate FGFR",increase in total content of ubiquitinated proteins and K48-linked Ub conjugates,"NIH-3T3 cells; 20 ng/mL FGFb for 20 minutes, FIGS. 6A-D",50%
same,treatment time to maximal increase in Ub conjugates,"NIH-3T3 cells; 20 ng/mL FGFb, FIGS. 6A-D",40 min
